From USRE43000E1, “Artificial riboswitch for controlling pre-mRNA splicing” (City of Hope, priority 2005, dated 2011)
Entries after “also recorded” stand apart in the source; their conditions may differ.

Assays:
[1] = tested on: AdMLTheo54Mut, AdMLTheo57Mut, AdMLTheo510Mut, AdMLTheo513Mut pre-mRNAs; test: In vitro splicing of AdML pre-mRNAs with 5′ ss embedded in the theophylline aptamer; type: biochemical
Text: Similar experiments were run using pre-mRNA substrates wherein the 5′ ss rather than the 3′ ss was embedded within the theophylline binding aptamer. Plasmids encoding […] 5′ ss embedded AdML pre-mRNA derivatives (AdMLTheo54Mut, AdMLTheo57Mut, AdMLTheo510Mut, and AdMLTheo513Mut) were constructed using a standard PCR based approach (FIG. 32A). The length of the lower aptamer stem in these substrates varied from 4 to 13 nucleotides. To prevent the activation of a cryptic 5′ ss, the GU's (potential 5′ ss) upstream of the authentic 5′ ss were mutated to GC. […] The proximal to distal product ratio decreased in the presence of theophylline in the 10- and 13-nucleotide lower aptamer substrates (FIGS. 34A and B). Theophylline induced alternative splicing in a dose-dependent manner (FIGS. 35A and B).
Nuclear extracts were prepared from HeLa cells (obtained from National Cell Culture), essentially as described by Dignam et al., (Dignam et al., 1983). […] Splicing intermediates and products were analyzed by electrophoresis in 13% denaturing polyacrylamide gels. The fractionated RNAs were visualized by PhosphorImager (Molecular Dynamics) and RNA signals were quantified by ImageQuant version 4.2 software (Molecular Dynamics) or ImageJ version 1.36 software (Rasband, W. S., ImageJ, U.S. National Institutes of Health, Bethesda, Md., http://rsb.info.nih.gov/ij, 1997-2006).

AdML-21AG pre-mRNA = test: In vitro splicing of AdML-21AG pre-mRNA (no theophylline binding site); type: biochemical; details: up to maximum tested dose of theophylline
Method: Nuclear extracts were prepared from HeLa cells (obtained from National Cell Culture), essentially as described by Dignam et al., (Dignam et al., 1983). To ensure that theophylline binds to its RNA target, a solution (5 μl) consisting of ^32P-labeled pre-mRNA (5-10 fmol, ˜10,000 cpm per reaction), indicated concentration of theophylline, 0.5 μl BC300 (20 mM HEPES, pH 8.0, 20% glycerol, 300 mM KCl, 0.2 mM EDTA) and 0.25 μl 160 mM MgCl2 were heated to 65° C. for 5 minutes, followed by 20 minutes incubation at room temperature. Next, 0.5 mM ATP, 20 mM creatine phosphate, 0.4 units of RNasin (Promega), 1.0 mM DTT, 6.25 μl HeLa nuclear extract, and water up to 12.5 μl (all concentrations are final) was added and incubation continued at 30° C. for the indicated time. Where indicated, theophylline was substituted by caffeine or water. […] Splicing intermediates and products were analyzed by electrophoresis in 13% denaturing polyacrylamide gels. The fractionated RNAs were visualized by PhosphorImager (Molecular Dynamics) and RNA signals were quantified by ImageQuant version 4.2 software (Molecular Dynamics) or ImageJ version 1.36 software (Rasband, W. S., ImageJ, U.S. National Institutes of Health, Bethesda, Md., http://rsb.info.nih.gov/ij, 1997-2006).

[2] = tested on: IgM pre-mRNA (ESE of exon M2); test: In vitro splicing of IgM pre-mRNA with bifunctional theophylline aptamer; type: biochemical, mouse
Text: To test this, we designed a bifunctional theophylline aptamer in which the non-conserved portion of the aptamer is complementary to the ESE present in the alternative exon M2 of the mouse IgM gene (FIG. 16). The IgM pre-mRNA is a well-characterized substrate and its ESE is essential for the splicing of the preceding intron between exon M1 and M2 (Tanaka et al., 1994; Watakabe et al., 1993). To prevent non-specific binding, ^32P-labeled IgM pre-mRNA and bifunctional aptamer were denatured for 1 minute at 90° C. followed by incubation for 10 min at 30° C. Next, the splicing mixture with or without theophylline was added, and reaction mixture incubated at 30° C. for 2 hours. After which the products of the splicing reaction were separated on a 13% denaturing polyacrylamide gel.

[3] = tested on: BclxSHTheo510 and BclxSHTheo513 pre-mRNAs; test: In vitro alternative splicing of Bcl-x minigene derivatives; type: biochemical; details: 10- and 13-nucleotide stem substrates
Method: Nuclear extracts were prepared from HeLa cells (obtained from National Cell Culture), essentially as described by Dignam et al., (Dignam et al., 1983). To ensure that theophylline binds to its RNA target, a solution (5 μl) consisting of ^32P-labeled pre-mRNA (5-10 fmol, ˜10,000 cpm per reaction), indicated concentration of theophylline, 0.5 μl BC300 (20 mM HEPES, pH 8.0, 20% glycerol, 300 mM KCl, 0.2 mM EDTA) and 0.25 μl 160 mM MgCl2 were heated to 65° C. for 5 minutes, followed by 20 minutes incubation at room temperature. Next, 0.5 mM ATP, 20 mM creatine phosphate, 0.4 units of RNasin (Promega), 1.0 mM DTT, 6.25 μl HeLa nuclear extract, and water up to 12.5 μl (all concentrations are final) was added and incubation continued at 30° C. for the indicated time. Where indicated, theophylline was substituted by caffeine or water. Splicing reaction was terminated by the addition of 125 μl stop buffer (100 mM Tris-HCl, pH 7.5, 10 mM EDTA, 1% SDS, 150 mM NaCl, 300 mM sodium acetate) followed by phenol-chloroform extraction and isolation of the RNA by ethanol precipitation.

**Q.** Which “proximal to distal product ratio” value ([1]; 10- and 13-nucleotide lower aptamer substrates) does the source give for `Cn1c(=O)c2[nH]cnc2n(C)c1=O` [theophylline] here?
**A.** decreased

**Q.** And the “effect on splicing of 5′ ss embedded substrates” value ([1]; lower aptamer stem 4 to 13 nucleotides)?
**A.** inhibit splicing

**Q.** What about the “effect on splicing of AdML-21AG pre-mRNA” value (AdML-21AG pre-mRNA) of the same compound?
**A.** failed to elicit any effect; also recorded: exerts no effect; also recorded: virtually unaffected

**Q.** And the “theophylline concentration required for reversal of splicing repression” value [2]?
**A.** 1.0 mM

**Q.** And the “effect of theophylline on splicing repressed by bifunctional aptamer” value ([2]; theophylline and bifunctional aptamer together)?
**A.** restoration of splicing

**Q.** What about the “distal to proximal product ratio of Bcl-x minigene derivatives” value [3] of the same compound?
**A.** increased
